The target in data set [1] is T1, adenosine A1 receptor (A1R) (Homo sapiens, UniProt P30542).
T1 construct: expressed in transfected cells; host or cells: CHO-K1
T1 sequence (P30542 1-326): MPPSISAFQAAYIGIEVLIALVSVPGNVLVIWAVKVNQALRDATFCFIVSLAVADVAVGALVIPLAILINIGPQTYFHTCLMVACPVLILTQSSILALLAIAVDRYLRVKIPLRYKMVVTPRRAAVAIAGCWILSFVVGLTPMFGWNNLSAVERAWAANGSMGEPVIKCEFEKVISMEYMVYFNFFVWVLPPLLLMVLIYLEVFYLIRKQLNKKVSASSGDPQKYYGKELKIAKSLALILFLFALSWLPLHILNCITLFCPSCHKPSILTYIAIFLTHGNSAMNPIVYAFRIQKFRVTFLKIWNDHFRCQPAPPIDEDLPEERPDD
Put plainly: Inhibition of adenosine A1 receptor cAMP signaling pathway in CHO-K1/A1R cells (HTRF cAMP dynamic 2 kit). The class given is cell-based. To be noted: Table 2; for IC50: CHO-K1/A1R cells, cAMP, 10 μM forskolin, 10 nM CPA; for IC50 ratio (A1R/A2aR): selectivity A1R over A2aR. The essentials: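 CHO-K1 cells stably expressing A1R, in HBSS with 20 mM HEPES, 0.1% BSA, rolipram and adenosine deaminase, were pre-incubated 30 min at RT with compound (0.1–100000 nM final). Cells were then stimulated 30 min with 10 μM forskolin plus 10 nM CPA. Intracellular cAMP was read by HTRF after 1 h detection.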
(TR-FRET usually uses a lanthanide donor and a delayed reading to cut background.)

Data set [2] in a line: Pharmacokinetics assay in mice after intragastrical administration (plasma, LC/MS/MS). Format: in vivo. To be noted: mouse, po, C57 mice (female), 2 mg/kg; for Vd/F: read-out: Apparent distribution volume Vz/F; for AUC: read-out: Area under curve AUC; for CL/F: read-out: Clearance CLz/F; for Cmax: read-out: Drug concentration in blood Cmax; for half-life: read-out: Half-life T1/2 (converted); for MRT: read-out: Residence time MRT. On the procedure:
Test Example 2. Pharmacokinetics assay of the compounds of the present disclosure in mice
Mice were used as test animals. The drug concentration in plasma at different time points was determined by LC/MS/MS method after intragastrical administration of the compounds of Example 1, Example 18 and Example 19 to mice. The pharmacokinetic behavior of the compounds of the present disclosure was studied and evaluated in mice.
Twenty-seven C57 mice (female) were purchased from Shanghai Jiesijie Laboratory Animal Co., LTD, with Certificate No.: SCXK (Shanghai) 2013-0006, and equally divided into 3 groups (9 mice per group).
A certain amount of the test compound was weighed, and added with 2.5% by volume of DMSO, 2.5% by volume of tween 80 and 95% by volume of normal saline to prepare a 0.1 mg/mL colorless, clear and transparent solution.
After an overnight fast, C57 mice were administered intragastrically with the test compounds at an administration dose of 2.0 mg/kg and an administration volume of 0.2 mL/10 g.
The mice were intragastrically administered with the compounds of Example 1, Example 18 and Example 19. 0.1 mL of blood (3 animals at each time point) was taken before administration and at 0.5, 1.0, 2.0, 4.0, 6.0, 8.0, 11.0 and 24.0 hours after administration. The samples were stored in heparinized tubes, and centrifuged for 10 minutes at 3,500 rpm to separate the plasma. The plasma samples were stored at −20° C., the mice was feed 2 hours after administration.
The content of the test compounds in the plasma of the mice after intragastrical administration of the test compounds at different concentrations was determined: 25 μL of the plasma obtained at each time point after administration was taken, added with 30 μL of the internal standard solution of camptothecin (100 ng/mL) and 200 μL of acetonitrile, vortex-mixed for 5 minutes, and centrifuged for 10 minutes (4000 rpm). 3 μL of the supernatant was taken for LC/MS/MS analysis.

A value given as a limit tells only on which side of the number the result lay.

As a reminder, the IC50 is the concentration at which inhibition is half-maximal. A lower IC50 goes with greater potency in that assay. The term AUC denotes the area under the concentration-time curve, a measure of exposure. For orientation: MRT means the average time that molecules of a dose stay in the body. `Cc1ccc(-c2nc(N)nc3c(Cc4cccc(CO[C@H]5CCOC5)n4)cnn23)o1` [Example 1, (S)-4-(5-Methylfuran-2-yl)-8-((6-(((tetrahydrofuran-3-yl)oxy)methyl)pyridin-2-yl)methyl)pyrazolo[1,5-a][1,3,5]triazin-2-amine]: in data set [1], 1120 nM corresponded to half-maximal inhibition (IC50) and the “IC50 ratio (A1R/A2aR)” value was >10^3. For the same compound, in data set [2], the Vd/F was 1.9 L/kg, the AUC turned out to be 724 ng·h/mL, the CL/F worked out at 45.9 mL/min/kg and the Cmax turned out to be 800 ng/mL. Further, in data set [2], the half-life was 0.48 h and the MRT came to 0.85 h.
For `Cc1ccc(-c2nc(N)nc3c(Nc4cccc(CO[C@H]5CCOC5)n4)cnn23)o1` [Example 18, (S)-4-(5-Methylfuran-2-yl)-N^8-(6-(((tetrahydrofuran-3-yl)oxy)methyl)pyridin-2-yl)pyrazolo[1,5-a][1,3,5]triazine-2,8-diamine], in data set [1], the midpoint of inhibition, the IC50, lay at 2540 nM and the “IC50 ratio (A1R/A2aR)” value is given as >10^3. For the same compound, in data set [2], the Vd/F turned out to be 0.841 L/kg, the area under the curve (AUC) turned out to be 4860 ng·h/mL, the CL/F worked out at 6.83 mL/min/kg and the Cmax amounted to 3180 ng/mL. For the same compound, in data set [2], the half-life is 1.42 h and the MRT came to 1.63 h.
As to `Cc1ccc(-c2nc(N)nc3c(Oc4cccc(CO[C@H]5CCOC5)n4)cnn23)o1` [Example 19, (S)-4-(5-Methylfuran-2-yl)-8-((6-(((tetrahydrofuran-3-yl)oxy)methyl)pyridin-2-yl)oxy)pyrazolo[1,5-a][1,3,5]triazin-2-amine], in data set [1], the 50% inhibitory concentration (IC50) stood at 2860 nM and the “IC50 ratio (A1R/A2aR)” value is >10^3. For the same compound, in data set [2], the Vd/F was determined as 2.12 L/kg, the AUC was 2490 ng·h/mL, the CL/F worked out at 13.3 mL/min/kg and the Cmax was 2360 ng/mL. In data set [2], the half-life is 1.85 h and the mean residence time (MRT) was found to be 1.24 h.
